Reference: patent publication US20110105623A1 (Biogenic Innovations, LLC, priority 2009, published 2011)

Key:
Bifidobacterium bifidum = experiment: Probiotic growth in media supplemented with MSM; format: cell-based; parameters: unit not given here
From the text: (§1) Plates were then counted. […] Data are presented in Cfu/mL.

[1] = system: Lactobacillus delbrueckii (Lactobacillus bulgaricus); experiment: Probiotic growth in media supplemented with MSM; format: cell-based; parameters: unit not given here
From the text: as §1

Methylsulfonylmethane [MSM]
Growth of Bifidobacteruim bifidum (Bifidobacterium bifidum; 5% MSM, 72 h): 12.43 | Growth of Bifidobacteruim bifidum (Bifidobacterium bifidum; […] MSM, 0 h): 1.64 | Growth of Bifidobacteruim bifidum (Bifidobacterium bifidum; […] MSM, 8 h): 1.60 | Growth of Bifidobacteruim bifidum (Bifidobacterium bifidum; […] MSM, 16 h): 6.21 | Growth of Bifidobacteruim bifidum (Bifidobacterium bifidum; […] MSM, 24 h): 2.52 | Growth of Bifidobacteruim bifidum (Bifidobacterium bifidum; […] MSM, 32 h): 3.37 | Growth of Bifidobacteruim bifidum (Bifidobacterium bifidum; […] MSM, 40 h): 3.52 | Growth of Bifidobacteruim bifidum (Bifidobacterium bifidum; […] MSM, 48 h): 3.95 | Growth of Bifidobacteruim bifidum (Bifidobacterium bifidum; […] MSM, 56 h): 8.35 | Growth of Bifidobacteruim bifidum (Bifidobacterium bifidum; […] MSM, 64 h): 8.30 | Growth of Bifidobacteruim bifidum (Bifidobacterium bifidum; […] MSM, 72 h): 10.12 | Growth of Lactobacillus bulgaricus ([1]; 0.125% MSM, 0 h): 2.29 | Growth of Lactobacillus bulgaricus ([1]; 0.125% MSM, 8 h): 4.15 | Growth of Lactobacillus bulgaricus ([1]; 0.125% MSM, 16 h): 8.22 | Growth of Lactobacillus bulgaricus ([1]; 0.125% MSM, 24 h): 9.04 | Growth of Lactobacillus bulgaricus ([1]; 0.125% MSM, 32 h): 8.55 | Growth of Lactobacillus bulgaricus ([1]; 0.125% MSM, 40 h): 9.29 | Growth of Lactobacillus bulgaricus ([1]; 0.125% MSM, 48 h): 10.94 | Growth of Lactobacillus bulgaricus ([1]; 0.125% MSM, 56 h): 8.00 | Growth of Lactobacillus bulgaricus ([1]; 0.125% MSM, 64 h): 8.59 | Growth of Lactobacillus bulgaricus ([1]; 0.125% MSM, 72 h): 6.74 | Growth of Lactobacillus bulgaricus ([1]; 0.2% MSM, 0 h): 2.25 | Growth of Lactobacillus bulgaricus ([1]; 0.2% MSM, 8 h): 4.08 | Growth of Lactobacillus bulgaricus ([1]; 0.2% MSM, 16 h): 8.34 | Growth of Lactobacillus bulgaricus ([1]; 0.2% MSM, 24 h): 9.10 | Growth of Lactobacillus bulgaricus ([1]; 0.2% MSM, 32 h): 9.60 | Growth of Lactobacillus bulgaricus ([1]; 0.2% MSM, 40 h): 9.11 | Growth of Lactobacillus bulgaricus ([1]; 0.2% MSM, 48 h): 11.07 | Growth of Lactobacillus bulgaricus ([1]; 0.2% MSM, 56 h): 8.79 | Growth of Lactobacillus bulgaricus ([1]; 0.2% MSM, 64 h): 8.79 | Growth of Lactobacillus bulgaricus ([1]; 0.2% MSM, 72 h): 6.72 | Growth of Lactobacillus bulgaricus ([1]; 0.50% MSM, 0 h): 2.23 | Growth of Lactobacillus bulgaricus ([1]; 0.50% MSM, 8 h): 4.42 | Growth of Lactobacillus bulgaricus ([1]; 0.50% MSM, 16 h): 8.28 | Growth of Lactobacillus bulgaricus ([1]; 0.50% MSM, 24 h): 9.05 | Growth of Lactobacillus bulgaricus ([1]; 0.50% MSM, 32 h): 9.54 | Growth of Lactobacillus bulgaricus ([1]; 0.50% MSM, 40 h): 9.40 | Growth of Lactobacillus bulgaricus ([1]; 0.50% MSM, 48 h): 10.82 | Growth of Lactobacillus bulgaricus ([1]; 0.50% MSM, 56 h): 9.14 | Growth of Lactobacillus bulgaricus ([1]; 0.50% MSM, 64 h): 8.80 | Growth of Lactobacillus bulgaricus ([1]; 0.50% MSM, 72 h): 6.72 | Growth of Lactobacillus bulgaricus ([1]; 1% MSM, 0 h): 2.29 | Growth of Lactobacillus bulgaricus ([1]; 1% MSM, 8 h): 4.83 | Growth of Lactobacillus bulgaricus ([1]; 1% MSM, 16 h): 8.36 | Growth of Lactobacillus bulgaricus ([1]; 1% MSM, 24 h): 9.03 | Growth of Lactobacillus bulgaricus ([1]; 1% MSM, 32 h): 9.31 | Growth of Lactobacillus bulgaricus ([1]; 1% MSM, 40 h): 9.34 | Growth of Lactobacillus bulgaricus ([1]; 1% MSM, 48 h): 11.23 | Growth of Lactobacillus bulgaricus ([1]; 1% MSM, 56 h): 8.11 | Growth of Lactobacillus bulgaricus ([1]; 1% MSM, 64 h): 6.50 | Growth of Lactobacillus bulgaricus ([1]; 1% MSM, 72 h): 6.45 | Growth of Lactobacillus bulgaricus ([1]; 5% MSM, 0 h): 2.19 | Growth of Lactobacillus bulgaricus ([1]; 5% MSM, 8 h): 3.28 | Growth of Lactobacillus bulgaricus ([1]; 5% MSM, 16 h): 7.39 | Growth of Lactobacillus bulgaricus ([1]; 5% MSM, 24 h): 8.50 | Growth of Lactobacillus bulgaricus ([1]; 5% MSM, 32 h): 9.29 | Growth of Lactobacillus bulgaricus ([1]; 5% MSM, 40 h): 9.37 | Growth of Lactobacillus bulgaricus ([1]; 5% MSM, 48 h): 10.92 | Growth of Lactobacillus bulgaricus ([1]; 5% MSM, 56 h): 10.07 | Growth of Lactobacillus bulgaricus ([1]; 5% MSM, 64 h): 10.96 | Growth of Lactobacillus bulgaricus ([1]; 5% MSM, 72 h): 8.62 | Growth of Lactobacillus bulgaricus ([1]; […] MSM, 0 h): 2.26 | Growth of Lactobacillus bulgaricus ([1]; […] MSM, 8 h): 4.57 | Growth of Lactobacillus bulgaricus ([1]; […] MSM, 16 h): 8.09 | Growth of Lactobacillus bulgaricus ([1]; […] MSM, 24 h): 9.01 | Growth of Lactobacillus bulgaricus ([1]; […] MSM, 32 h): 9.15 | Growth of Lactobacillus bulgaricus ([1]; […] MSM, 40 h): 9.27 | Growth of Lactobacillus bulgaricus ([1]; […] MSM, 48 h): 11.37 | Growth of Lactobacillus bulgaricus ([1]; […] MSM, 56 h): 8.23 | Growth of Lactobacillus bulgaricus ([1]; […] MSM, 64 h): 8.75 | Growth of Lactobacillus bulgaricus ([1]; […] MSM, 72 h): 6.51
